From patent US20240058450A1, “BCL-XL Inhibitory Compounds Having Low Cell Permeability and Antibody Drug Conjugates Including the Same” (AbbVie Inc., priority 2014, published 2024)
pEC50, pKi: −log10 of the molar value. Where two headings read alike, the source gives them in different places.

Tests used:
Bcl-xL = Bcl-xL (Homo sapiens, UniProt Q07817); test: Time Resolved-Fluorescence Resonance Energy Transfer (TR-FRET) binding assay, competition with probe F-Bak; conditions: for Ki: in the presence of 1% HS, read-out: Bcl-xL Binding Ki (nM, 1% HS); for pKi: without HS, read-out: Bcl-xL Binding Ki
Bcl-xL, sequence (Q07817 whole entry): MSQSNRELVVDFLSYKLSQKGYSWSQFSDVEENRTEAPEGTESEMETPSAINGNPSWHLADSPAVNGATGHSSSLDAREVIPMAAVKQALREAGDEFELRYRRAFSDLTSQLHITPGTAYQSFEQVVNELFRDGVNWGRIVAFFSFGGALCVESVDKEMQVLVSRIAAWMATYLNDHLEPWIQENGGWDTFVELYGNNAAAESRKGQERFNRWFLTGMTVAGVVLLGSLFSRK
Procedure, shortened: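 TR-FRET binding assay run at room temperature for 2 h after mixing compound with Bcl-xL protein, F-Bak probe and Tb-labelled antibody. Test compounds diluted from a 2× 50 μM stock. Ki values derived via Wang's equation from 520/495 nm emission under 340 nm excitation, in the absence of serum or with 1% HS.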

[1] = system: Molt-4 human acute lymphoblastic leukemia cells; test: Molt-4 cell viability assay (CellTiter-Glo, 48 hours, 10% HS); format: cell-based; conditions: Homo sapiens, MOLT-4, 48 h, non-permeabilized cells
Procedure, shortened: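 Cells were seeded at 12,500 per well in medium with 10% human serum and exposed to a 3-fold compound dilution series from 10 μM to 0.0005 μM. After 48 h, viable cells were quantified by CellTiter-Glo luminescence. Each concentration was run in duplicate on at least 3 occasions.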

[2] = system: permeabilized Bcl-xL dependent Molt-4 cells; test: Cytochrome C release in selectively (digitonin) permeabilized Molt-4 cells; format: cell-based, human; conditions: Homo sapiens, MOLT-4, 4 h, 4 h treatment, read-out: Molt-4 Permeabilized Cyt C Release
Source text: The permeabilization of the mitochondrial outer membrane to release proteins from the intermembrane space into the cytosol is a pivotal event in the process of apoptosis. Specifically, the release of cytochrome C triggers the formation of the apoptosome which, in turn, results in caspase activation and other events that will commit the cell to undergo programmed cell death (Goldstein el al., 2005, Cell Death and Differentiation 12:453). The process of mitochondrial outer membrane permeabilization (MOMP) is controlled by the Bcl-2 family members. It is promoted by the multidomain pro-apoptotic proteins Bax and Bak which, upon activation, oligomerize on the outer mitochondrial membrane and form pores to ultimately release cytochrome C. This action is antagonized by the antiapoptotic members, including Bcl-2 and Bcl-xL. Compounds that are capable of inhibiting Bcl-2 or Bcl-xL, for example, in cells that depend upon these proteins for survival, can cause activation of Bax and or Bak, MOMP, release of cytochrome C and the mentioned downstream steps in the apoptotic process. This process of cytochrome C release can be measured in cells via Western blot of both mitochrondrial and cytosolic fractions, and can be used a proxy measurement of apoptosis in cells.
As a means of detecting the ability of a Bcl-xL inhibitor with low cell-permeability to cause release of cytochrome C, the cells can be treated with an agent that causes selective pore formation in the plasma membrane, but not the mitochondrial membrane. Specifically, the cholesterol/phospholipid ratio is much higher in the plasma membrane than the mitochondrial membrane. […] This agent forms insoluble complexes with cholesterol leading to the segregation of cholesterol from its normal phospholipid binding sites. This action, in turn, leads to the formation of holes about 40-50 Å wide in the lipid bilayer. Once the plasma membrane is permeabilized, cytosolic components able to pass over digitonin-formed holes can be washed out, including the cytochrome C that was released from mitochondria to cytosol in the apoptotic cells ((Campos, 2006, Cytometry A 69(6):515-523)).
To determine if Bcl-xL inhibitors were inducing cell death through apoptosis, cytochrome C release was measured in Bcl-xL dependent Molt-4 cells following treatment Specifically, 1×10^6 cells were treated for 4 h (37° C., 5% CO2) with the test compounds in half-log dilutions starting at 3.0 μM and ending at 0.01 μM. Cells were then processed as described in Chen et al., 2011, Mol. Cancer Ther. 10:2340-2350 (the Bcl-2/Bcl-X(L)/Bcl-w inhibitor, navitoclax, enhances the activity of chemotherapeutic agents in vitro and in vivo.).

Row | SMILES | Ki (Bcl-xL) [nM] | pKi (Bcl-xL) | EC50 [1] [nM] | pEC50 [2]
1 | Cc1c(-c2ccc(N3CCc4cccc(C(=O)Nc5nc6ncccc6s5)c4C3)nc2C(=O)O)cnn1CC12CC3(C)CC(C)(C1)CC(OCCNCCCP(=O)(O)O)(C3)C2 [Example 1.39, 3-{1-[(3,5-dimethyl-7-{2-[(3-phosphonopropyl)amino]ethoxy}tricyclo[3.3.1.1^3,7]dec-1-yl)methyl]-5-methyl-1H-pyrazol-4-yl}-6-[8-([1,3]thiazolo[4,5-b]pyridin-2-ylcarbamoyl)-3,4-dihydroisoquinolin-2 (1H)-yl]pyridine-2-carboxylic acid] | 0.174 | 10.74 | 1590 | > 9.30
2 | Cc1c(-c2ccc(N3CCc4cccc(C(=O)Nc5nc6ccccc6s5)c4C3)nc2C(=O)O)cnn1CC12CC3(C)CC(C)(C1)CC(OCCN(CCS(=O)(=O)O)C(=O)[C@@H](N)CC(=O)O)(C3)C2 [Example 1.44, 3-{1-[(3-{2-[L-alpha-aspartyl(2-sulfoethyl)amino]ethoxy}-5,7-dimethyltricyclo[3.3.1.1^3,7]dec-1-yl)methyl]-5-methyl-1H-pyrazol-4-yl}-6-[8-(1,3-benzothiazol-2-ylcarbamoyl)-3,4-dihydroisoquinolin-2 (1H)-yl]pyridine-2-carboxylic acid] | 0.282 | > 12.00 | 1260 | > 9.30
3 | Cc1c(-c2ccc(N3CCc4c(OCCN)ccc(C(=O)Nc5nc6ccccc6s5)c4C3)nc2C(=O)O)cnn1CC12CC3(C)CC(C)(C1)CC(OCCN(C)CCS(=O)(=O)O)(C3)C2 [Example 1.46, 6-[5-(2-aminoethoxy)-8-(1,3-benzothiazol-2-ylcarbamoyl)-3,4-dihydroisoquinolin-2 (1H)-yl]-3-{1-[(3,5-dimethyl-7-{2-[methyl(2-sulfoethyl)amino]ethoxy}tricyclo[3.3.1.1^3,7]dec-1-yl)methyl]-5-methyl-1H-pyrazol-4-yl}pyridine-2-carboxylic acid] | 0.00615 | > 12.00 | 68 | > 9.30
4 | Cc1c(-c2ccc(N3CCc4c(OCCNCCS(=O)(=O)O)ccc(C(=O)Nc5nc6ccccc6s5)c4C3)nc2C(=O)O)cnn1CC12CC3(C)CC(C)(C1)CC(OCCN(C)CCS(=O)(=O)O)(C3)C2 [Example 1.47, 6-[8-(1,3-benzothiazol-2-ylcarbamoyl)-5-{2-[(2-sulfoethyl)amino]ethoxy}-3,4-dihydroisoquinolin-2 (1H)-yl]-3-{1-[(3,5-dimethyl-7-{2-[methyl(2-sulfoethyl)amino]ethoxy}tricyclo[3.3.1.1^3,7]dec-1-yl)methyl]-5-methyl-1H-pyrazol-4-yl}pyridine-2-carboxylic acid] | 0.0294 | 11.22 | 197 | > 9.30
